In patent publication US20230085307A1, “PYRIDAZINONE COMPOUND AND HERBICIDE” (NISSAN CHEMICAL CORPORATION, priority 2019, published 2023):

Each compound was assayed on blackgrass (assay: Test Example 5: herbicidal effect by foliage application, plastic box (Table 20, symbol J)). Conditions: foliage application, AAH 320 g/ha, three weeks after application.
Type: in vivo, blackgrass (Alopecurus myosuroides)
Summary of the method: (§1)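 Plants were sown into sterilized diluvial soil under about 1.5 cm cover and kept in a greenhouse at 25° C. to 30° C. Fourteen days on, foliage received an even spray of the diluted emulsion. Herbicidal or crop effect was judged three weeks afterwards.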
With `CCCC(=O)Oc1c(C)nn(C)c(=O)c1-c1c(-c2ccc3c(c2)OCCO3)sc2ccccc12` [1-090] the “J: blackgrass, herbicidal effect” value was 2 (Herbicidal rate of 20% or more and less than 40%). In the case of `Cc1nn(C)c(=O)c(-c2c(-c3cnc4ccccc4c3)sc3ccccc23)c1O` [1-108], the “J: blackgrass, herbicidal effect” value is reported as 0 (Herbicidal rate of 5% or less (almost no effect)).

What follows are compounds tested on green foxtail (assay: Test Example 5: herbicidal effect by foliage application, plastic box (Table 20, symbol G)). Conditions: foliage application, AAH 320 g/ha, three weeks after application.
Type: in vivo, green foxtail (Setaria viridis)
Summary of the method: as §1
For `CCCC(=O)Oc1c(C)nn(C)c(=O)c1-c1c(-c2ccc3c(c2)OCCO3)sc2ccccc12` [1-090], the “G: green foxtail, herbicidal effect” value was 5 (Herbicidal rate of 90% or more (almost completely withered)). In the case of `Cc1nn(C)c(=O)c(-c2c(-c3cnc4ccccc4c3)sc3ccccc23)c1O` [1-108], the “G: green foxtail, herbicidal effect” value is reported as 0 (Herbicidal rate of 5% or less (almost no effect)).

These compounds were tested on late watergrass (assay: Test Example 1: herbicidal activity, application before weed generation under submerged conditions (Table 16, symbol A)). Conditions: 320 g/ha applied herbicide.
Type: in vivo, late watergrass (Echinochloa oryzicola)
Summary of the method: (§2)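 Alluvial soil was flooded to 4 cm depth, weed seeds were sown mixed and 2.5-leaf rice seedlings were transplanted. On sowing day, the compound's emulsion, diluted in water to a set dose, was applied to the water surface. Plants grew at 25–30 °C and were scored 0–5 after three weeks.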
With `CCCC(=O)Oc1c(C)nn(C)c(=O)c1-c1c(-c2ccc3c(c2)OCCO3)sc2ccccc12` [1-090] the “Herbicidal effect on A: late watergrass (grade 0-5)” value was 5 (Herbicidal rate of 90% or more (almost completely withered)). In the case of `Cc1nn(C)c(=O)c(-c2c(-c3cnc4ccccc4c3)sc3ccccc23)c1O` [1-108], the “Herbicidal effect on A: late watergrass (grade 0-5)” value is reported as 3 (Herbicidal rate of 40% or more and less than 70%).

The compounds below were run on windgrass (assay: Test Example 4: herbicidal effect by soil treatment (Table 19, symbol L)). Conditions: amount of applied herbicide 320 g/ha.
Type: in vivo, windgrass (Apera spica-venti)
Summary of the method: (§3)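 Pre-emergence style soil spray: seeds under ~1.5 cm sterilized diluvial soil received a uniform coat of emulsion diluted to the predetermined herbicide amount. Greenhouse 25–30° C; readout at week three on previously defined criteria.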
In the case of `CCCC(=O)Oc1c(C)nn(C)c(=O)c1-c1c(-c2ccc3c(c2)OCCO3)sc2ccccc12` [1-090], the “herbicidal effect rating, L: windgrass” value is reported as 0 (Herbicidal rate of 5% or less (almost no effect)). With `Cc1nn(C)c(=O)c(-c2c(-c3cnc4ccccc4c3)sc3ccccc23)c1O` [1-108] the “herbicidal effect rating, L: windgrass” value was 0 (Herbicidal rate of 5% or less (almost no effect)).

The compounds below were run on barnyard grass (assay: Test Example 5: herbicidal effect by foliage application, plastic box (Table 20, symbol H)). Conditions: foliage application, AAH 320 g/ha, three weeks after application.
Type: in vivo, barnyard grass (Echinochloa crus-galli)
Summary of the method: as §1
In the case of `CCCC(=O)Oc1c(C)nn(C)c(=O)c1-c1c(-c2ccc3c(c2)OCCO3)sc2ccccc12` [1-090], the “H: barnyard grass, herbicidal effect” value is reported as 4 (Herbicidal rate of 70% or more and less than 90%). For `Cc1nn(C)c(=O)c(-c2c(-c3cnc4ccccc4c3)sc3ccccc23)c1O` [1-108], the “H: barnyard grass, herbicidal effect” value was 0 (Herbicidal rate of 5% or less (almost no effect)).

Each compound was assayed on redroot pigweed (assay: Test Example 4: herbicidal effect by soil treatment (Table 19, symbol N)). Conditions: amount of applied herbicide 320 g/ha.
Type: in vivo, redroot pigweed (Amaranthus retroflexus)
Summary of the method: as §3
With `CCCC(=O)Oc1c(C)nn(C)c(=O)c1-c1c(-c2ccc3c(c2)OCCO3)sc2ccccc12` [1-090] the “herbicidal effect rating, N: redroot pigweed” value was 2 (Herbicidal rate of 20% or more and less than 40%). In the case of `Cc1nn(C)c(=O)c(-c2c(-c3cnc4ccccc4c3)sc3ccccc23)c1O` [1-108], the “herbicidal effect rating, N: redroot pigweed” value is reported as 0 (Herbicidal rate of 5% or less (almost no effect)).

What follows are compounds tested on oval-leafed pondweed (assay: Test Example 2: herbicidal activity, application during weed generation under submerged conditions (Table 17, symbol C)). Conditions: AAH 320 g/ha; application during weed generation, submerged conditions.
Type: in vivo, oval-leafed pondweed (Monochoria vaginalis)
Summary of the method: (§4)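 Steps: fill Wagner pots with alluvial soil; add water to give 4 cm depth; sow the species mixed; grow under glass at 25–30° C.; at 1–2 leaves apply water-diluted emulsion formulation to the water surface at a fixed herbicide amount; score after 3 weeks.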
`CCCC(=O)Oc1c(C)nn(C)c(=O)c1-c1c(-c2ccc3c(c2)OCCO3)sc2ccccc12` [1-090] was tested, and the “herbicidal effect rating, C: oval-leafed pondweed” value was 4 (Herbicidal rate of 70% or more and less than 90%). With `Cc1nn(C)c(=O)c(-c2c(-c3cnc4ccccc4c3)sc3ccccc23)c1O` [1-108] the “herbicidal effect rating, C: oval-leafed pondweed” value was 0 (Herbicidal rate of 5% or less (almost no effect)).

What follows are compounds tested on wild oat (assay: Test Example 5: herbicidal effect by foliage application, plastic box (Table 20, symbol I)). Conditions: foliage application, AAH 320 g/ha, three weeks after application.
Type: in vivo, wild oat (Avena fatua)
Summary of the method: as §1
In the case of `CCCC(=O)Oc1c(C)nn(C)c(=O)c1-c1c(-c2ccc3c(c2)OCCO3)sc2ccccc12` [1-090], the “I: wild oat, herbicidal effect” value is reported as 0 (Herbicidal rate of 5% or less (almost no effect)). With `Cc1nn(C)c(=O)c(-c2c(-c3cnc4ccccc4c3)sc3ccccc23)c1O` [1-108] the “I: wild oat, herbicidal effect” value was 0 (Herbicidal rate of 5% or less (almost no effect)).

What follows are compounds tested on barnyard grass (assay: Test Example 3: herbicidal effect by foliage application, Wagner pot (Table 18, symbol H)). Conditions: 320 g/ha.
Type: in vivo, barnyard grass (Echinochloa crus-galli)
Summary of the method: (§5)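 Plants were sown in alluvial soil held under 0.1–0.5 cm standing water and grown 14 days in a greenhouse at 25–30 °C. An emulsifiable formulation, water-diluted to the set dose, was then sprayed onto the foliage, and effects were scored three weeks later using previously defined criteria.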
For `CCCC(=O)Oc1c(C)nn(C)c(=O)c1-c1c(-c2ccc3c(c2)OCCO3)sc2ccccc12` [1-090], the “herbicidal effect on H (barnyard grass), rating 0-5” value was 5 (Herbicidal rate of 90% or more (almost completely withered)). In the case of `Cc1nn(C)c(=O)c(-c2c(-c3cnc4ccccc4c3)sc3ccccc23)c1O` [1-108], the “herbicidal effect on H (barnyard grass), rating 0-5” value is reported as 0 (Herbicidal rate of 5% or less (almost no effect)).

Each compound was assayed on late watergrass (assay: Test Example 2: herbicidal activity, application during weed generation under submerged conditions (Table 17, symbol A)). Conditions: AAH 320 g/ha; application during weed generation, submerged conditions.
Type: in vivo, late watergrass (Echinochloa oryzicola)
Summary of the method: as §4
In the case of `CCCC(=O)Oc1c(C)nn(C)c(=O)c1-c1c(-c2ccc3c(c2)OCCO3)sc2ccccc12` [1-090], the “herbicidal effect rating, A: late watergrass” value is reported as 4 (Herbicidal rate of 70% or more and less than 90%). `Cc1nn(C)c(=O)c(-c2c(-c3cnc4ccccc4c3)sc3ccccc23)c1O` [1-108] was tested, and the “herbicidal effect rating, A: late watergrass” value was 0 (Herbicidal rate of 5% or less (almost no effect)).

The compounds below were run on southern crabgrass (assay: Test Example 5: herbicidal effect by foliage application, plastic box (Table 20, symbol F)). Conditions: foliage application, AAH 320 g/ha, three weeks after application.
Type: in vivo, southern crabgrass (Digitaria ciliaris)
Summary of the method: as §1
For `CCCC(=O)Oc1c(C)nn(C)c(=O)c1-c1c(-c2ccc3c(c2)OCCO3)sc2ccccc12` [1-090], the “F: southern crabgrass, herbicidal effect” value was 3 (Herbicidal rate of 40% or more and less than 70%). In the case of `Cc1nn(C)c(=O)c(-c2c(-c3cnc4ccccc4c3)sc3ccccc23)c1O` [1-108], the “F: southern crabgrass, herbicidal effect” value is reported as 0 (Herbicidal rate of 5% or less (almost no effect)).

The compounds below were run on Chinese sprangletop (assay: Test Example 3: herbicidal effect by foliage application, Wagner pot (Table 18, symbol D)). Conditions: 320 g/ha.
Type: in vivo, chinese sprangletop (Leptochloa chinensis)
Summary of the method: as §5
`CCCC(=O)Oc1c(C)nn(C)c(=O)c1-c1c(-c2ccc3c(c2)OCCO3)sc2ccccc12` [1-090] was tested, and the “herbicidal effect on D (Chinese sprangletop), rating 0-5” value was 1 (Herbicidal rate of 5% or more and less than 20%). With `Cc1nn(C)c(=O)c(-c2c(-c3cnc4ccccc4c3)sc3ccccc23)c1O` [1-108] the “herbicidal effect on D (Chinese sprangletop), rating 0-5” value was 3 (Herbicidal rate of 40% or more and less than 70%).

These compounds were tested on Italian ryegrass (assay: Test Example 4: herbicidal effect by soil treatment (Table 19, symbol K)). Conditions: amount of applied herbicide 320 g/ha.
Type: in vivo, Italian ryegrass (Lolium multiflorum)
Summary of the method: as §3
With `CCCC(=O)Oc1c(C)nn(C)c(=O)c1-c1c(-c2ccc3c(c2)OCCO3)sc2ccccc12` [1-090] the “herbicidal effect rating, K: Italian ryegrass” value was 0 (Herbicidal rate of 5% or less (almost no effect)). For `Cc1nn(C)c(=O)c(-c2c(-c3cnc4ccccc4c3)sc3ccccc23)c1O` [1-108], the “herbicidal effect rating, K: Italian ryegrass” value was 0 (Herbicidal rate of 5% or less (almost no effect)).

These compounds were tested on Japanese bulrush (assay: Test Example 1: herbicidal activity, application before weed generation under submerged conditions (Table 16, symbol B)). Conditions: 320 g/ha applied herbicide.
Type: in vivo, Japanese bulrush (Schoenoplectus juncoides)
Summary of the method: as §2
In the case of `CCCC(=O)Oc1c(C)nn(C)c(=O)c1-c1c(-c2ccc3c(c2)OCCO3)sc2ccccc12` [1-090], the “Herbicidal effect on B: Japanese bulrush (grade 0-5)” value is reported as 4 (Herbicidal rate of 70% or more and less than 90%). In the case of `Cc1nn(C)c(=O)c(-c2c(-c3cnc4ccccc4c3)sc3ccccc23)c1O` [1-108], the “Herbicidal effect on B: Japanese bulrush (grade 0-5)” value is reported as 2 (Herbicidal rate of 20% or more and less than 40%).

The compounds below were run on persian speedwell (assay: Test Example 5: herbicidal effect by foliage application, plastic box (Table 20, symbol R)). Conditions: foliage application, AAH 320 g/ha, three weeks after application.
Type: in vivo, Persian speedwell (Veronica persica)
Summary of the method: as §1
For `CCCC(=O)Oc1c(C)nn(C)c(=O)c1-c1c(-c2ccc3c(c2)OCCO3)sc2ccccc12` [1-090], the “R: persian speedwell, herbicidal effect” value was 5 (Herbicidal rate of 90% or more (almost completely withered)). With `Cc1nn(C)c(=O)c(-c2c(-c3cnc4ccccc4c3)sc3ccccc23)c1O` [1-108] the “R: persian speedwell, herbicidal effect” value was 0 (Herbicidal rate of 5% or less (almost no effect)).

Each compound was assayed on rice flat sedge (assay: Test Example 3: herbicidal effect by foliage application, Wagner pot (Table 18, symbol E)). Conditions: 320 g/ha.
Type: in vivo, rice flat sedge (Cyperus iria)
Summary of the method: as §5
In the case of `CCCC(=O)Oc1c(C)nn(C)c(=O)c1-c1c(-c2ccc3c(c2)OCCO3)sc2ccccc12` [1-090], the “herbicidal effect on E (rice flat sedge), rating 0-5” value is reported as 5 (Herbicidal rate of 90% or more (almost completely withered)). For `Cc1nn(C)c(=O)c(-c2c(-c3cnc4ccccc4c3)sc3ccccc23)c1O` [1-108], the “herbicidal effect on E (rice flat sedge), rating 0-5” value was 5 (Herbicidal rate of 90% or more (almost completely withered)).
